Test results as given in patent US11384078B2, “5,6-fused-bicyclic compounds and compositions for the treatment of parasitic diseases” (NOVARTIS AG, priority 2017, dated 2022).

Key:
Format in all cases: cell-based
[1] = system: Trypanosoma cruzi amastigotes cultured in 3T3 fibroblast cells; experiment: Assay for growth inhibition of kinetoplastid parasite Trypanosoma cruzi (beta-galactosidase Tulahuen strain, CPRG readout); details: Trypanosoma cruzi, Fibroblast, T. cruzi amastigotes in 3T3 fibroblast cells; read-out: Buckner infectious T. cruzi EC50
Outline: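 3T3 fibroblasts (1,000 cells/well) plated overnight, treated with compound in DMSO, then infected with 10,000 Lac-Z-expressing Tulahuen trypomastigotes. After 6 days, 0.6 mM CPRG with 0.6% NP-40 added for 2 h at room temperature; absorbance gives relative intracellular amastigote numbers. Benznidazole and nifurtimox serve as positive controls.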

[2] = system: Trypanosoma brucei brucei (Lister 427) strain; experiment: Assay for growth inhibition against Trypanosoma brucei brucei (Cell TiterGlo ATP luminescence); details: Trypanosoma brucei, T. brucei brucei (Lister 427); read-out: T. Brucei (HAT) EC50
Outline: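 T. b. brucei Lister 427 grown in HMI-9 with 10% FBS and 10% serum plus, seeded at 10,000 parasites/mL with 10-point threefold compound dilutions in duplicate, 37 °C for 2 days. Viability read as ATP luminescence 30 min after Cell TiterGlo; IC50 versus untreated controls.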

[3] = system: L. donovani HU3 strain in mouse peritoneal macrophages; experiment: Assay for inhibition of parasitemia of Leishmania donovani in mouse macrophages (SYBR Green nuclei count, high-content imaging); details: Leishmania donovani, Peritoneal macrophage, L. donovani in mouse peritoneal macrophages; read-out: L. donovani in Mouse Macrophages EC50
Outline: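 Peritoneal macrophages from uninfected BALB/c mice were infected for 24 h with spleen-derived L. donovani HU3 (4×10^5 parasites per 2×10^4 macrophages), then cultured with compound for 5 days at 37° C, 5% CO2. After fixation and permeabilization, parasite nuclei were stained with SYBR Green and counted by high-content imaging.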

[4] = system: Leishmania donovani axenic amastigote; experiment: In vitro assay for growth inhibition of Leishmania donovani axenic amastigote (Cell TiterGlo luminescence); details: Leishmania donovani, L. donovani axenic amastigotes in vitro; read-out: L. donovani amastigotes EC50
Outline: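 Axenic L. donovani amastigotes (9600/well) grown at 37 °C, 5% CO2 in supplemented RPMI 1640, pH 5.5, with compound added from DMSO. After two days, viability read by CellTiter-Glo luminescence against DMSO and control-compound wells.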

Row | Structure (SMILES) | EC50 [1] [nM] | EC50 [2] [nM] | EC50 [3] [nM] | EC50 [4] [nM]
1 | Cc1nc(C)c(C(=O)Nc2ccc(F)c(-n3cc4cc(C5CCOCC5)cnc4n3)c2)o1 [Compound 169, N-{4-fluoro-3-[5-(oxan-4-yl)-2H-pyrazolo[3,4-b]pyridin-2-yl]phenyl}-2,4-dimethyl-1,3-oxazole-5-carboxamide] | 14 | < 23 | 30 | 10
2 | CN(C)c1cnc2nn(-c3cc(NC(=O)N4CCC4)ccc3F)cc2c1 [Compound 170, N-{3-[5-(dimethylamino)-2H-pyrazolo[3,4-b]pyridin-2-yl]-4-fluorophenyl}azetidine-1-carboxamide] | 4.6 | < 23 | 11 | 8
3 | O=C(Nc1ccc(F)c(-n2cc3cc(N4CC5(COC5)C4)cnc3n2)c1)N1CC(F)C1 [Compound 171, 3-fluoro-N-[4-fluoro-3-(5-{2-oxa-6-azaspiro[3.3]heptan-6-yl}-2H-pyrazolo[3,4-b]pyridin-2-yl)phenyl}azetidine-1-carboxamide] | 47 | < 23 | 16 | 9.5
4 | O=C(Nc1ccc(F)c(-n2cc3cc(N4C[C@@H]5C[C@H]4CO5)cnc3n2)c1)N1CC(F)C1 [Compound 172, 3-fluoro-N-(4-fluoro-3-{5-[(1S,4S)-2-oxa-5-azabicyclo[2.2.1]heptan-5-yl]-2H-pyrazolo[3,4-b]pyridin-2-yl]phenyl)azetidine-1-carboxamide] | 33 | < 23 | 11 | 6.7
5 | CC(C)c1cnc2nn(-c3cc(NC(=O)CCC(F)(F)F)ccc3F)cc2c1 [Compound 173, 4,4,4-trifluoro-N-(4-fluoro-3-(5-isopropyl-2H-pyrazolo[3,4-b]pyridin-2-yl)phenyl)butanamide] | 140 | 120 | 500 | 410
6 | CC(C)c1cnc2nn(-c3cc(NC(=O)OCCC(F)(F)F)ccc3F)cc2c1 [Compound 174, 3,3,3-trifluoropropyl N-{4-fluoro-3-[5-(propan-2-yl)-2H-pyrazolo[3,4-b]pyridin-2-yl]phenyl}carbamate] | 720 | 1000 | 2700 | 2000
7 | Cc1nc(C)c(C(=O)Nc2ccc(F)c(-n3cc4cc(CC(F)(F)F)cnc4n3)c2)o1 [Compound 175, N-{4-fluoro-3-[5-(2,2,2-trifluoroethyl)-2H-pyrazolo[3,4-b]pyridin-2-yl]phenyl}-2,4-dimethyl-1,3-oxazole-5-carboxamide] | 4.9 | < 23 | 8.1 | 24
8 | CC(C)c1cnc2nn(-c3cc(NC(=O)N4CC[C@@H](F)C4)ccc3F)cc2c1 [Compound 195, (3R)-3-fluoro-N-{4-fluoro-3-[5-(propan-2-yl)-2H-pyrazolo[3,4-b]pyridin-2-yl]phenyl}pyrrolidine-1-carboxamide] | 4 | < 23 | 6.4 | 10
9 | CC(C)c1cnc2nn(-c3cc(NC(=O)c4ccco4)ccc3F)cc2c1 [Compound 196, N-{4-fluoro-3-[5-(propan-2-yl)-2H-pyrazolo[3,4-b]pyridin-2-yl]phenyl}furan-2-carboxamide] | 12 | < 23 | 27000 | 76
10 | O=C(Nc1ccc(F)c(-n2cc3cc(N4CC5CCC4CO5)cnc3n2)c1)N1CC(F)C1 (centres unmarked) [Compound 197, 3-fluoro-N-[4-fluoro-3-(5-{2-oxa-5-azabicyclo[2.2.2]octan-5-yl}-2H-pyrazolo[3,4-b]pyridin-2-yl)phenyl}azetidine-1-carboxamide] | 37 | 5 | 13 | 199
11 | CC(C)CNc1cnc2nn(-c3cc(NC(=O)N4CC(F)C4)ccc3F)cc2c1 [Compound 198, 3-fluoro-N-(4-fluoro-3-{5-[(2-methylpropyl)amino]-2H-pyrazolo[3,4-b]pyridin-2-yl}phenyl)azetidine-1-carboxamide] | 23 | 5 | 49 | 546
12 | CCNc1cnc2nn(-c3cc(NC(=O)N4CC(F)C4)ccc3F)cc2c1 [Compound 199, N-{3-[5-(ethylamino)-2H-pyrazolo[3,4-b]pyridin-2-yl]-4-fluorophenyl}-3-fluoroazetidine-1-carboxamide] | 24 | 5 | 21 | 502
13 | CC(C)Nc1cnc2nn(-c3cc(NC(=O)N4CC(F)C4)ccc3F)cc2c1 [Compound 200, 3-fluoro-N-(4-fluoro-3-{5-[(propan-2-yl)amino]-2H-pyrazolo[3,4-b]pyridin-2-yl}phenyl)azetidine-1-carboxamide] | 15 | 5 | 7 | 974
14 | O=C(Nc1ccc(F)c(-n2cc3cc(N4CC5(CCO5)C4)cnc3n2)c1)N1CC(F)C1 [Compound 201, 3-fluoro-N-[4-fluoro-3-(5-{1-oxa-6-azaspiro[3.3]heptan-6-yl}-2H-pyrazolo[3,4-b]pyridin-2-yl)phenyl]azetidine-1-carboxamide] | 20 | 5 | 4 | 192
15 | O=C(Nc1ccc(F)c(-n2cc3cc(N4CC5(CCOC5)C4)cnc3n2)c1)N1CC(F)C1 [Compound 202, 3-fluoro-N-[4-fluoro-3-(5-{6-oxa-2-azaspiro[3.4]octan-2-yl}-2H-pyrazolo[3,4-b]pyridin-2-yl)phenyl]azetidine-1-carboxamide] | 25 | 5 | 10 | 463
16 | O=C(Nc1ccc(F)c(-n2cc3cc(N4CC5(CCOCC5)C4)cnc3n2)c1)N1CC(F)C1 [Compound 203, 3-fluoro-N-[4-fluoro-3-(5-{7-oxa-2-azaspiro[3.5]nonan-2-yl}-2H-pyrazolo[3,4-b]pyridin-2-yl)phenyl]azetidine-1-carboxamide] | 20 | 5 | 9 | 490
17 | O=C(Nc1ccc(F)c(-n2cc3cc(N4CC5C(C4)C5(F)F)cnc3n2)c1)N1CC(F)C1 (centres unmarked) [Compound 204, N-[3-(5-{6,6-difluoro-3-azabicyclo[3.1.0]hexan-3-yl}-2H-pyrazolo[3,4-b]pyridin-2-yl)-4-fluorophenyl]-3-fluoroazetidine-1-carboxamide] | 2 | 5 | 4 | 74
18 | COC1CN(c2cnc3nn(-c4cc(NC(=O)N5CC(F)C5)ccc4F)cc3c2)C1 [Compound 205, 3-fluoro-N-{4-fluoro-3-[5-(3-methoxyazetidin-1-yl)-2H-pyrazolo[3,4-b]pyridin-2-yl]phenyl}azetidine-1-carboxamide] | 15 | 5 | 11 | 197
19 | N#Cc1ccc(C(=O)Nc2ccc(F)c(-n3cc4cc(-c5ccccn5)cnc4n3)c2)o1 [Compound 206, 5-cyano-N-{4-fluoro-3-[5-(pyridin-2-yl)-2H-pyrazolo[3,4-b]pyridin-2-yl]phenyl}furan-2-carboxamide] | 1 | 5 | 13 | 2
20 | CCOC1CC1C(=O)Nc1ccc(F)c(-n2cc3cc(C(C)C)cnc3n2)c1 (centres unmarked) [Compound 207, 2-ethoxy-N-{4-fluoro-3-[5-(propan-2-yl)-2H-pyrazolo[3,4-b]pyridin-2-yl]phenyl}cyclopropane-1-carboxamide] | 1270 | 1820 | 2060 | 1830
